# Source: US8609329B2, “FRET-based assay for screening modulators of receptor cycling” (Albany Medical College, priority 2007, dated 2013)
# Test system: LDL-R-LDL-C complexes
# Assay: Automated FRET imaging of LDL-C-BODIPY/LDL-C-DiI internalized into MDCK cells (organization of LDL-R/LDL-C complexes)
# Format: cell-based
# Method: MDCK cells were bound with LDL-C-BODIPY and LDL-C-DiI for 2 h at 4° C. or incubated for various times (5-8 min and 20-30 min) at 37° C. in the presence or absence of BafilomycinA 1 (BafA1), a specific vacuolar-type ATPase inhibitor. Images were collected using a LSM Zeiss 510META confocal microscope with 63×1.4NA oil lens, 512×512 pixel resolution, no filter, 2× zoom. Then images were processed using an integrated and automated ImageJ plugin, which includes background removal, PFRET algorithm, ROI selection and E % analysis (48). […]
# First, images were background-subtracted and processed by PFRET software, which removed donor and acceptor SBT pixel-by-pixel on the basis of matched fluorescence levels between the double-label specimen and single-label reference specimens, using seven images; two single-label donor reference images (donor excitation/donor channel and acceptor channel); two single-label acceptor reference images (donor and acceptor excitation, both in the acceptor channel); three double-label images (donor excitation/donor and acceptor channel, acceptor excitation/acceptor emission. Elangovan et al., 2003; Wallrabe et al., 2003a,b). […] The pixel-by-pixel correction used to generate the processed FRET (PFRET) image was actually based on the average value of narrow fluorescence rangers, for more efficient running of the correction algorithm (Elangovan et al., 2003). […]
structure (smiles),measurement,setting,value
"CO/C1=C\C(C)=C\[C@@H](C)[C@@H](O)[C@@H](C)C/C(C)=C/C=C/[C@H](OC)[C@@H]([C@@H](C)[C@@H](O)[C@H](C)[C@@]2(O)C[C@@H](O)[C@H](C)[C@@H](C(C)C)O2)OC1=O [BafA1, Bafilomycin A1]",organization of LDL-R-LDL-C complexes (clustered vs. random),"30 min internalization at 37° C., 100 nM BafA1",clustered organization
same,dependency of E % on acceptor levels,LDL-C internalized at 37° C. for 30 min in the presence of 100 nM BafA1,clear independency from acceptor
